Measured values from PubChem BioAssay (NCI).
Several values for one entry are separate records, joined by “and”; a condition that tells them apart may be missing. Equal values may be shown once.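 Exposure lasted 48 hours, with cells grown in 96-well plates and compounds tested at five concentrations. GI50 marks 50% less growth. At the TGI there is no net growth.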

Tests used:
Experiment in all cases: NCI tumour cell line growth inhibition, 48 h
SK-MEL-2 melanoma = test system: SK-MEL-2 melanoma
K-562 leukemia = test system: K-562 leukemia
NCI/ADR-RES ovarian = test system: NCI/ADR-RES ovarian
OVCAR-8 ovarian = test system: OVCAR-8 ovarian
HL-60(TB) leukemia = test system: HL-60(TB) leukemia

Structure (SMILES)	TGI (SK-MEL-2 melanoma)	TGI (K-562 leukemia)	TGI (NCI/ADR-RES ovarian)	TGI (OVCAR-8 ovarian)	TGI (HL-60(TB) leukemia)	GI50 (K-562 leukemia)
O=C1C2CC=CCC2C(=O)N1n1c(-c2ccccc2)n[nH]c1=O (stereo not given)	> 100 µM	> 100 µM	> 100 µM	> 100 µM		
COc1c2c(cc3oc(C)cc(=O)c13)OC(=N)C(C(N)=O)C2CC(=O)c1ccc(N)cc1 (stereo not given)	> 100 µM	> 100 µM	> 100 µM	> 100 µM	> 100 µM	
COc1nc(N)c(NC2OC(CO)C(O)C2O)c(=O)[nH]1 (stereo not given)	> 100 µM	> 100 µM	> 100 µM	> 100 µM	> 100 µM	
CC(C)[C@@H]1NC(=O)[C@H]2N=C(O[C@@H]2C)[C@@H]2CCCN2C(=O)[C@H](Cc2ccccc2)NC(=O)[C@@H]2CSC(=N2)[C@@H](Cc2ccccc2)NC(=O)[C@@H]2CSC1=N2	> 50 µM	> 50 µM	> 50 µM	> 50 µM	41.3 µM	
CCCC(=O)NC1=C(NCC)C(=O)c2ccccc2C1=O		> 100 µM			> 100 µM	
COc1cc(OC)c(OC)cc1/C=N/N=C(\N)NO	> 100 µM	> 100 µM	> 100 µM	> 100 µM	> 100 µM	
COc1ccc(NC(=O)/C(=N\NC(=O)C[n+]2ccccc2)c2c(O)c3ccc(O)cc3oc2=O)c([N+](=O)[O-])c1	> 100 µM	> 100 µM	> 100 µM	> 100 µM	> 100 µM	
CN(/N=C(\C(=O)O)c1ccccc1)C1=NCCCN1	> 100 µM	> 100 µM	> 100 µM	> 100 µM	> 100 µM	
N#CC(C#N)=Cc1ccc2c(c1)OC(Cl)O2 (stereo not given)	37.6 µM	> 100 µM	> 100 µM	> 100 µM	44.1 µM	
COc1ccc(NS(=O)CCCc2ccccc2)cc1 (stereo not given)	> 100 µM	> 100 µM	> 100 µM	> 100 µM	> 100 µM	
CCOC(=O)/C(C(=S)Nc1ccccc1)=C(/N)N1CCCC1	> 100 µM	> 100 µM	> 100 µM	> 100 µM	> 100 µM	
O=c1oc2ccccc2cc1/C=N/N1C(=S)N(c2ccccc2)C(=Nc2ccccc2)C1=Nc1ccccc1	> 100 µM	> 100 µM	> 100 µM	> 100 µM		
CNC(=O)N1CN(c2ccccc2)C2(CCN(CCCC(=O)c3ccc(F)cc3)CC2)C1=O		49 µM	36.6 µM	> 100 µM	37.8 µM	
CC(=O)Nc1ccccc1SCCSSCCSc1ccccc1NC(C)=O	86.5 µM	> 100 µM	94.8 µM	> 100 µM	44.8 µM	
COC(=O)[C@@H]1CN(C(=O)CCc2ccccc2)C(=O)N1C(=O)OCc1ccccc1	> 100 µM	> 100 µM	> 100 µM	> 100 µM	> 100 µM	
COc1cccc(/C=C2/Sc3scc(-c4ccccc4)[n+]3C2=O)c1O	89.8 µM		42.3 µM	35.4 µM	39.6 µM	
O=c1oc2ccccc2c(Nc2ccc3c(c2)S(=O)(=O)c2ccccc2O3)c1[N+](=O)[O-]	46.4 µM	71.3 µM	> 100 µM	78.4 µM	59.2 µM	
CC1(C)CS(=O)(=O)CC(C)(C)C(=N/N)/C1=N\N	> 100 µM	> 100 µM	> 100 µM	> 100 µM	> 100 µM	
O=C(NCCCCCCCCNC(=O)c1cc(-c2ccccc2)nc2ccccc12)c1cc(-c2ccccc2)nc2ccccc12		> 100 µM	> 100 µM	> 100 µM	> 100 µM	
COC(=O)C1C(OC(=O)c2ccccc2)CC2CCC1N2C(N)=O (stereo not given)	> 100 µM	> 100 µM	> 100 µM	> 100 µM	> 100 µM	
COC(=O)c1ccc2c(O)c(O)ccc2c1	13.8 µM	5.43 µM	48.1 µM	37.2 µM	5.06 µM	
CN(C)c1ccc(N=Nc2ccc3nc[nH]c3c2)cc1	> 100 µM	75.2 µM	> 100 µM	> 100 µM	> 100 µM	

Structure (SMILES)	TGI (SK-MEL-2 melanoma)	TGI (K-562 leukemia)	TGI (NCI/ADR-RES ovarian)	TGI (OVCAR-8 ovarian)	TGI (HL-60(TB) leukemia)	GI50 (K-562 leukemia)
CCC1(CC)CC(=NNS(=O)(=O)c2ccc(C)cc2)C1	> 100 µM	> 100 µM	> 100 µM	> 100 µM	> 100 µM	
CC(=O)OCC(OC(C)=O)C(OC(C)=O)C(C=NN(C(C)=O)S(=O)(=O)c1ccc(/C=C2\NC(=O)NC2=O)cc1)OC(C)=O (stereo not given)	> 100 µM	> 100 µM	> 100 µM	> 100 µM		
Cc1ccc(/C=N/Nc2cnccn2)s1	> 100 µM	> 100 µM	> 100 µM	> 100 µM	> 100 µM	
O=C(O[C@H]1[C@@H](O)[C@H](n2cnc3c(Cl)ncnc32)O[C@@H]1COC(c1ccccc1)(c1ccccc1)c1ccccc1)c1ccccc1	49.7 µM	> 100 µM	> 100 µM	> 100 µM	40.7 µM	
COc1ccc(NC(=O)CC(=O)N2N=C(C)C(N=Nc3ccc(S(=O)(=O)c4ccc(N=NC5C(=O)N(C(=O)CC(=O)Nc6ccc(OC)cc6)N=C5C)cc4)cc3)C2=O)cc1 (stereo not given)	> 100 µM	> 100 µM	> 100 µM	> 100 µM	> 100 µM	
C1=NCCNCCN=Cc2ccc(cc2)OCc2cccc(n2)COc2ccc1cc2	> 100 µM	> 100 µM	> 100 µM	> 100 µM	> 100 µM	
COc1ccc2[nH]c3c(c2c1)CCn1c-3nc2ccccc2c1=O		> 25 µM	> 25 µM	> 25 µM	> 25 µM	
C=Cc1c(C)c(OC)cc2c1Oc1ccc(OC)c(C)c1CC2	> 100 µM	> 100 µM	> 100 µM	> 100 µM	> 100 µM	
NNC(=O)c1ccc(-n2nnc(C(=O)NN)c2C(=O)NN)cc1	> 100 µM	> 100 µM	> 100 µM	> 100 µM	> 100 µM	
CCC1C(c2cc(OC)c(OC)c(OC)c2)c2cc3c(cc2OC1N1CCCC1)OCO3 (stereo not given)	13 µM	8.62 µM	7.03 µM	23.9 µM	> 23.3 µM	
CN(C(=O)Cc1cc(Cl)c(Cl)cc1N=C=S)[C@H]1CCCC[C@@H]1N1CCCC1	29.2 µM	5.89 µM	36.9 µM	28.8 µM	23.8 µM	
Cc1cc(C)c(C2=NOC(c3ccccc3)(c3cc(=O)n(-c4ccccc4)s3)O2)c(C)c1 (stereo not given)	89.5 µM	> 100 µM	68.1 µM	36.5 µM	> 100 µM	
COc1ccccc1NC(=O)/C(Cc1nc2ccc([N+](=O)[O-])cc2[nH]c1=O)=N\NC(=O)C[N+](C)(C)C	> 100 µM		> 100 µM	> 100 µM	93.1 µM	
O=C(c1ccccc1)c1ccc(COc2ccc(C(c3c(O)c4ccccc4oc3=O)c3c(O)c4ccccc4oc3=O)cc2)cc1	34.9 µM	53.3 µM	40.9 µM	37.2 µM		
Cc1n[nH]c(=O)c2cc(-c3ccccc3)[nH]c12	91.1 µM	> 100 µM	> 100 µM	> 100 µM	> 100 µM	
O=C(NCc1cccnc1)NCc1cccnc1	> 100 µM	> 100 µM	> 100 µM	> 100 µM	> 100 µM	
Cc1ccc(-c2nc3ccc(Cl)cc3[nH]2)cc1	> 100 µM	> 100 µM	> 100 µM	> 100 µM	> 100 µM	
Fc1ccc2nc3n(c2c1)C(c1c(F)cccc1F)SC3 (stereo not given)	> 100 µM		> 100 µM	> 100 µM	53 µM	
COc1ccc(-c2c(N)n(-c3nc4ccccc4s3)c(=O)c3cc([N+](=O)[O-])ccc23)cc1	> 100 µM	> 100 µM	78.1 µM	23.2 µM	> 100 µM	
COc1cc2cc(C(=O)N3CC(CCl)c4ccc(O)cc43)[nH]c2c(OC)c1OC (stereo not given)	0.00468 µM			0.0253 µM		
C/C(=N\Nc1nc2ccccc2s1)c1ncccn1	4.46 µM	> 100 µM	0.0681 µM	0.0505 µM	> 100 µM	
CSc1nc(N)c(NC2OC(CO)C(O)C2O)c(=O)[nH]1 (stereo not given)	> 100 µM	> 100 µM	> 100 µM	> 100 µM	> 100 µM	

Structure (SMILES)	TGI (SK-MEL-2 melanoma)	TGI (K-562 leukemia)	TGI (NCI/ADR-RES ovarian)	TGI (OVCAR-8 ovarian)	TGI (HL-60(TB) leukemia)	GI50 (K-562 leukemia)
CCOC(=O)c1c(N2CCCC2)nsc1Nc1ccccc1	> 100 µM	> 100 µM	> 100 µM	> 100 µM	> 100 µM	
CCC(NC(C)c1ccccc1)C(O)c1ccc(OCc2ccccc2)c(OCc2ccccc2)c1 (stereo not given)	29.1 µM	9.44 µM	30.6 µM	30.1 µM	30.2 µM	
CC(=O)OC1C(O)COC(O[C@H]2CC[C@]34C[C@]35CC[C@]3(C)C([C@@]6(C)CC[C@@H](C(C)(C)O)O6)[C@@H](O)C[C@@]3(C)C5C[C@H](OC3OCC(O)C(O)C3O)[C@H]4C2(C)C)C1OC1OCC(O)C(O)C1O (stereo not given in full)	> 100 µM	> 100 µM	> 100 µM	> 100 µM	> 100 µM	
COc1ccc(NC2Oc3cc4c(cc3C(c3cccc(OC)c3OC)C2C)OCO4)cc1 (stereo not given)	70.2 µM	70.6 µM		> 100 µM	10.9 µM	
CCOC(=O)CSc1nc(-c2ccccc2)c(C#N)c(=O)[nH]1	> 100 µM	> 100 µM	> 100 µM	> 100 µM	> 100 µM	
COc1nc2c(c(=O)n1C)N(C(C)=O)C1C(N2)OCC(OC(C)=O)C1OC(C)=O (stereo not given)	> 10 µM	> 10 µM	> 10 µM	> 10 µM	> 10 µM	
C#CCOCC12C=CC(O1)C1C(=O)N(C)C(=O)C12 (stereo not given)		> 100 µM	> 100 µM	> 100 µM	> 100 µM	46.4 µM and > 100 µM
COC(=O)c1c2n(c3ccccc13)C[C@H]1OC(C)(C)O[C@@H]21	> 100 µM	> 100 µM	> 100 µM	> 100 µM	> 100 µM	
N#Cc1c(N)oc(-c2cccc([N+](=O)[O-])c2)c1C#N	> 100 µM		> 100 µM	44.1 µM	65.1 µM	
O=C(N=S(NC(=O)c1ccccc1)C(Cl)(Cl)Cl)c1ccccc1 (stereo not given)	70.1 µM	> 84 µM	> 51.9 µM	38.8 µM	13.7 µM	
COCn1c2ccc(OC(C)=O)cc2c2c(=O)oc(N(C)C)nc21	> 100 µM	> 100 µM	> 100 µM	> 100 µM	> 100 µM	
C=CCOC(=O)/C(=C\c1ccc(OC)c(OC)c1)c1ccc(OC)c(OC)c1	> 100 µM	> 100 µM	> 100 µM	> 100 µM	40.3 µM	
CC1CC[C@@H](C(C)C)[C@H](Oc2nnc(C3OC(CO)C(O)C3O)o2)C1 (stereo not given in full)	> 100 µM	> 100 µM	> 100 µM	> 100 µM	> 100 µM	
N#C/C(=C\c1ccccc1)C(=O)Nc1nnc(-c2ccccc2)o1	> 100 µM	> 100 µM	> 100 µM	> 100 µM	40.9 µM	
CC1C(c2ccccc2)OP(=O)(OC(C#N)c2ccccc2)N1C (stereo not given)	> 100 µM	> 100 µM	> 100 µM	> 100 µM	> 100 µM	
CCOC(=O)c1sc2c(c1OC(=O)c1cccs1)c(=O)n(-c1ccccc1)c(=S)n2-c1ccccc1		> 100 µM	31.4 µM	44.9 µM	48.4 µM	
CC1(C)CC(=O)c2c(nc3ccc4ccccc4c3c2-c2ccc(NC(=O)CCCC(=O)Nc3ccc(-c4c5c(nc6ccc7ccccc7c46)CC(C)(C)CC5=O)cc3)cc2)C1	> 100 µM	> 100 µM	> 100 µM	> 100 µM	> 100 µM	
Cc1ccc(N2C(=O)C3c4[nH]c5ccccc5c4C4CCC(C(C)(C)C)CC4C3C2=O)cc1 (stereo not given)	44.6 µM	17.5 µM	31.8 µM	20.9 µM	> 74.9 µM	
Cc1c(/C=N/NC(=S)Nc2ccccc2Cl)c(=O)n(-c2ccccc2)n1C	> 100 µM	> 100 µM	76.1 µM	84.1 µM	> 100 µM	
O=C(Cn1c2c(c3ccccc31)CCCC2)NC1CCCCC1	> 100 µM	> 100 µM	> 100 µM	> 100 µM	> 100 µM	
COC(=O)C1CC2(CCC1=O)Cc1ccccc1C2=O (stereo not given)	> 100 µM	> 100 µM	> 100 µM	> 100 µM	> 100 µM	
CC1(CCC2C=CCC2)CCCNC1=S (stereo not given)	> 10 µM	> 10 µM		> 10 µM	> 10 µM	
